According to PubChem BioAssay (NCI):
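Exposure lasted 48 hours, with cells grown in 96-well plates and compounds tested at five concentrations. At the TGI there is no net growth.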

Assays:
Assay in all cases: inhibition of tumour cell growth, NCI panel, 48 h
OVCAR-5 ovarian = system: OVCAR-5 ovarian
UO-31 renal = system: UO-31 renal
HCC-2998 colon = system: HCC-2998 colon
M14 melanoma = system: M14 melanoma
U251 CNS = system: U251 CNS
UACC-257 melanoma = system: UACC-257 melanoma
SW-620 colon = system: SW-620 colon
DMS 273 small cell lung = system: DMS 273 small cell lung
DMS 114 small cell lung = system: DMS 114 small cell lung
COLO 205 colon = system: COLO 205 colon
HOP-92 NSCLC = system: HOP-92 NSCLC
RXF 393 renal = system: RXF 393 renal
SF-539 CNS = system: SF-539 CNS
MALME-3M melanoma = system: MALME-3M melanoma
SN12C renal = system: SN12C renal
A549 NSCLC = system: A549 NSCLC
SK-MEL-2 melanoma = system: SK-MEL-2 melanoma
OVCAR-3 ovarian = system: OVCAR-3 ovarian
TK-10 renal = system: TK-10 renal
KM20L2 colon = system: KM20L2 colon
HOP-18 NSCLC = system: HOP-18 NSCLC
HT29 colon = system: HT29 colon
LOX IMVI melanoma = system: LOX IMVI melanoma
HOP-62 NSCLC = system: HOP-62 NSCLC
NCI-H460 lung = system: NCI-H460 lung
OVCAR-4 ovarian = system: OVCAR-4 ovarian
LXFL 529 NSCLC = system: LXFL 529 NSCLC
CAKI-1 renal = system: CAKI-1 renal
786-0 renal = system: 786-0 renal
HL-60(TB) leukemia = system: HL-60(TB) leukemia
EKVX NSCLC = system: EKVX NSCLC
M19-MEL melanoma = system: M19-MEL melanoma
OVCAR-8 ovarian = system: OVCAR-8 ovarian
NCI-H23 lung = system: NCI-H23 lung
SF-268 CNS = system: SF-268 CNS
SNB-19 CNS = system: SNB-19 CNS
SNB-78 CNS = system: SNB-78 CNS
DLD-1 colon = system: DLD-1 colon
SR leukemia = system: SR leukemia
ACHN renal = system: ACHN renal
NCI-H522 lung = system: NCI-H522 lung
SF-295 CNS = system: SF-295 CNS
SK-MEL-28 melanoma = system: SK-MEL-28 melanoma
NCI-H226 lung = system: NCI-H226 lung
SNB-75 CNS = system: SNB-75 CNS
KM12 colon = system: KM12 colon
MOLT-4 leukemia = system: MOLT-4 leukemia
K-562 leukemia = system: K-562 leukemia
UACC-62 melanoma = system: UACC-62 melanoma
A498 renal = system: A498 renal
SK-OV-3 ovarian = system: SK-OV-3 ovarian
SK-MEL-5 melanoma = system: SK-MEL-5 melanoma
CCRF-CEM leukemia = system: CCRF-CEM leukemia
RPMI-8226 leukemia = system: RPMI-8226 leukemia
IGROV1 ovarian = system: IGROV1 ovarian
HCT-116 colon = system: HCT-116 colon
HCT-15 colon = system: HCT-15 colon

Measured: TGI

COC(=O)C1C(/C=C/c2ccoc2)ON2CCC[C@@H]12 (some centres undefined)
98 µM: HOP-18 NSCLC
not listed: MOLT-4 leukemia | K-562 leukemia | UACC-62 melanoma | A498 renal | SK-OV-3 ovarian | SK-MEL-5 melanoma | CCRF-CEM leukemia | RPMI-8226 leukemia | IGROV1 ovarian | HCT-116 colon | HCT-15 colon
> 100 µM: all other assays above

O=C(O)c1cc(=O)c2cc(C(=O)c3cccs3)c(Cl)c(Cl)c2o1
not listed: DMS 273 small cell lung | DMS 114 small cell lung | COLO 205 colon | RXF 393 renal | SF-539 CNS | HOP-18 NSCLC | LOX IMVI melanoma | M19-MEL melanoma | HCT-116 colon | HCT-15 colon
> 100 µM: all other assays above

COc1ccc(/C=C(\Cl)c2ccc(OC)cc2)cc1
99.1 µM: UACC-62 melanoma
not listed: RXF 393 renal | SK-MEL-2 melanoma | HOP-18 NSCLC | HT29 colon | SNB-78 CNS | SF-295 CNS | IGROV1 ovarian | HCT-15 colon
> 100 µM: all other assays above

O=c1[nH]cnc2c1ncn2CCCCO
not listed: U251 CNS | DMS 273 small cell lung | SK-MEL-2 melanoma | NCI-H522 lung | SK-OV-3 ovarian
> 100 µM: all other assays above
